In ChEMBL document CHEMBL1141986, “Molecular docking of the highly hypolipidemic agent alpha-asarone with the catalytic portion of HMG-CoA reductase” (Bioorg Med Chem Lett, 2005) one finds IC50 and Ki data, which are given here for two molecules.

Each structure is given as a SMILES string.

Usually IC50 stands for the point on the concentration scale where inhibition reaches its midpoint. A higher IC50 goes with a need for much substance. One may read the Ki as a measure of affinity in units of concentration, obtained from inhibition or displacement.

In test [1] the target is T1, 3-hydroxy-3-methylglutaryl-coenzyme A reductase (Homo sapiens, UniProt P04035).
T1 sequence (P04035 whole entry): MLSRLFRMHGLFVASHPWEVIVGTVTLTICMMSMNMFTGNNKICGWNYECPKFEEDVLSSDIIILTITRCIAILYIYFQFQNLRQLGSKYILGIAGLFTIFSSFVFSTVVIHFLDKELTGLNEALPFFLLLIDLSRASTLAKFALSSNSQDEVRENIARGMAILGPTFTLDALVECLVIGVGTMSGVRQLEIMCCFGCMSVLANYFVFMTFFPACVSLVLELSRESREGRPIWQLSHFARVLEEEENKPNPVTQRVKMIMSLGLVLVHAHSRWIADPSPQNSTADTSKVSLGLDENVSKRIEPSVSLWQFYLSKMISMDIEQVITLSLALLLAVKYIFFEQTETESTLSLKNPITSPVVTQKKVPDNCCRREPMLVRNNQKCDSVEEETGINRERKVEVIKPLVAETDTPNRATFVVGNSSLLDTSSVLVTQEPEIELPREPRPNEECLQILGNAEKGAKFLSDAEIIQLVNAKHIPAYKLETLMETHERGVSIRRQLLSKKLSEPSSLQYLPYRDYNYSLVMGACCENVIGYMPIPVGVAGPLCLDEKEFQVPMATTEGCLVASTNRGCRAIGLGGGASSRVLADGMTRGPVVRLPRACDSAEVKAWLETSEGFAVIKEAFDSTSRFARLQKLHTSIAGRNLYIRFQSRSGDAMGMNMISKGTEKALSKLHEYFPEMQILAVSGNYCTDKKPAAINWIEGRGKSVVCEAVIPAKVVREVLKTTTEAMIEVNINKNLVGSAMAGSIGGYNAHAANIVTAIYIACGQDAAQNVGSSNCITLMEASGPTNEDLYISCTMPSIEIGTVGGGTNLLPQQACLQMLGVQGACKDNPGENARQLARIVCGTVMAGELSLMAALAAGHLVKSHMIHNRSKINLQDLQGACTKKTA
As to the kind of experiment: Inhibitory concentration against HMG-CoA reductase.

In test [2] the target is T1, 3-hydroxy-3-methylglutaryl-coenzyme A reductase. Kind of test: Inhibitory constant against HMG-CoA reductase.
The target is the same in test [3]. Kind of test: Inhibitory constant against HMG-CoA reductase with alpha asarone.

`CC(O)(CC(=O)O)CC(=O)O` [MEGLUTOL]: in test [1], the IC50 was 4000 nM. Moreover, in test [2], the inhibition constant Ki came to 23.5 nM.
As for `CC(C)c1nc(N(C)S(C)(=O)=O)nc(-c2ccc(F)cc2)c1/C=C/[C@@H](O)C[C@@H](O)CC(=O)O` [ROSUVASTATIN], the Ki in test [3] was 71000 nM; in test [2] it was 0.9 nM. In addition, the IC50 in test [1] was found to be 5.4 nM.
